Measurements published in PubChem BioAssay (NCI).
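Interpolation was linear, between the two tested concentrations surrounding the appropriate level; five concentrations were tested over 48 hours in 96-well plates. TGI is the concentration that stops growth completely.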

Legend:
Assay in all cases: growth of human tumour cells (NCI), 48 h
[1] = system: SK-OV-3 ovarian
[2] = system: SNB-75 CNS
[3] = system: NCI-H460 lung
[4] = system: U251 CNS
[5] = system: HCT-15 colon
[6] = system: LOX IMVI melanoma
[7] = system: KM12 colon
[8] = system: SF-295 CNS
[9] = system: SW-620 colon
[10] = system: DU-145 prostate
[11] = system: K-562 leukemia
[12] = system: NCI-H226 lung
[13] = system: CAKI-1 renal
[14] = system: COLO 205 colon
[15] = system: SN12C renal
[16] = system: NCI/ADR-RES ovarian
[17] = system: PC-3 prostate
[18] = system: UACC-257 melanoma
[19] = system: HOP-62 NSCLC
[20] = system: HCT-116 colon
[21] = system: EKVX NSCLC
[22] = system: SF-539 CNS
[23] = system: MDA-N
[24] = system: MALME-3M melanoma
[25] = system: HCC-2998 colon
[26] = system: SK-MEL-28 melanoma
[27] = system: 786-0 renal
[28] = system: UACC-62 melanoma
[29] = system: OVCAR-3 ovarian
[30] = system: SK-MEL-5 melanoma
[31] = system: TK-10 renal
[32] = system: IGROV1 ovarian
[33] = system: SF-268 CNS
[34] = system: SR leukemia
[35] = system: OVCAR-4 ovarian
[36] = system: T-47D breast
[37] = system: NCI-H23 lung
[38] = system: MCF7 breast
[39] = system: ACHN renal
[40] = system: MDA-MB-435
[41] = system: RPMI-8226 leukemia
[42] = system: HOP-92 NSCLC
[43] = system: SNB-19 CNS
[44] = system: MDA-MB-231 breast
[45] = system: M14 melanoma
[46] = system: A549 NSCLC
[47] = system: UO-31 renal
[48] = system: OVCAR-5 ovarian
[49] = system: CCRF-CEM leukemia
[50] = system: SK-MEL-2 melanoma
[51] = system: HT29 colon
[52] = system: HS 578T breast
[53] = system: HL-60(TB) leukemia
[54] = system: RXF 393 renal
[55] = system: OVCAR-8 ovarian
[56] = system: BT-549 breast
[57] = system: A498 renal
[58] = system: NCI-H522 lung
[59] = system: MOLT-4 leukemia

SMILES: Cc1c2c(C#N)nccc2c(C)c2c1c1ccccc1n2Cc1ccccc1
- TGI [1]: > 100 µM
- TGI [2]: > 100 µM
- TGI [3]: > 100 µM
- TGI [4]: > 100 µM
- TGI [5]: > 100 µM
- TGI [6]: > 100 µM
- TGI [7]: > 100 µM
- TGI [8]: > 100 µM
- TGI [9]: > 100 µM
- TGI [10]: > 100 µM
- TGI [11]: > 100 µM
- TGI [12]: > 100 µM
- TGI [13]: > 100 µM
- TGI [14]: > 100 µM
- TGI [15]: > 100 µM
- TGI [16]: > 100 µM
- TGI [17]: > 100 µM
- TGI [18]: > 100 µM
- TGI [19]: > 100 µM
- TGI [20]: > 100 µM
- TGI [21]: > 100 µM
- TGI [22]: > 100 µM
- TGI [23]: > 100 µM
- TGI [24]: > 100 µM
- TGI [25]: > 100 µM
- TGI [26]: > 100 µM
- TGI [27]: > 100 µM
- TGI [28]: > 100 µM
- TGI [29]: > 100 µM
- TGI [30]: > 100 µM
- TGI [31]: > 100 µM
- TGI [32]: > 100 µM
- TGI [33]: > 100 µM
- TGI [34]: > 100 µM
- TGI [35]: > 100 µM
- TGI [36]: > 100 µM
- TGI [37]: > 100 µM
- TGI [38]: > 100 µM
- TGI [39]: > 100 µM
- TGI [40]: > 100 µM
- TGI [41]: > 100 µM
- TGI [42]: > 100 µM
- TGI [43]: > 100 µM
- TGI [44]: > 100 µM
- TGI [45]: > 100 µM
- TGI [46]: > 100 µM
- TGI [47]: > 100 µM
- TGI [48]: > 100 µM
- TGI [49]: > 100 µM
- TGI [50]: > 100 µM
- TGI [51]: > 100 µM
- TGI [52]: > 100 µM
- TGI [53]: > 100 µM
- TGI [54]: > 100 µM
- TGI [55]: > 100 µM

SMILES: Cc1cc(S(=O)(=O)Nc2n[nH]c(N)n2)c(SCC(=O)O)cc1Cl
- TGI [1]: > 10 µM
- TGI [2]: > 10 µM
- TGI [3]: > 10 µM
- TGI [4]: > 10 µM
- TGI [5]: > 10 µM
- TGI [6]: > 10 µM
- TGI [7]: > 10 µM
- TGI [8]: > 10 µM
- TGI [56]: > 10 µM
- TGI [9]: > 10 µM
- TGI [10]: > 10 µM
- TGI [57]: > 10 µM
- TGI [11]: > 10 µM
- TGI [12]: > 10 µM
- TGI [13]: > 10 µM
- TGI [14]: > 10 µM
- TGI [15]: > 10 µM
- TGI [16]: > 10 µM
- TGI [17]: > 10 µM
- TGI [18]: > 10 µM
- TGI [19]: > 10 µM
- TGI [20]: > 10 µM
- TGI [21]: > 10 µM
- TGI [22]: > 10 µM
- TGI [23]: > 10 µM
- TGI [24]: > 10 µM
- TGI [25]: > 10 µM
- TGI [26]: > 10 µM
- TGI [27]: > 10 µM
- TGI [29]: > 10 µM
- TGI [30]: > 10 µM
- TGI [31]: > 10 µM
- TGI [32]: > 10 µM
- TGI [33]: > 10 µM
- TGI [34]: > 10 µM
- TGI [35]: > 10 µM
- TGI [36]: > 10 µM
- TGI [37]: > 10 µM
- TGI [38]: > 10 µM
- TGI [39]: > 10 µM
- TGI [41]: > 10 µM
- TGI [42]: > 10 µM
- TGI [43]: > 10 µM
- TGI [45]: > 10 µM
- TGI [46]: > 10 µM
- TGI [47]: > 10 µM
- TGI [48]: > 10 µM
- TGI [58]: > 10 µM
- TGI [49]: > 10 µM
- TGI [50]: > 10 µM
- TGI [51]: > 10 µM
- TGI [52]: > 10 µM
- TGI [59]: > 10 µM
- TGI [53]: > 10 µM
- TGI [54]: > 10 µM
- TGI [55]: > 10 µM

SMILES: CC1(CCOCc2ccccc2)NC(=O)NC1=O (configuration not stated)
- TGI [3]: > 100 µM
- TGI [4]: > 100 µM
- TGI [5]: > 100 µM
- TGI [6]: > 100 µM
- TGI [7]: > 100 µM
- TGI [8]: > 100 µM
- TGI [56]: > 100 µM
- TGI [9]: > 100 µM
- TGI [10]: > 100 µM
- TGI [57]: > 100 µM
- TGI [11]: > 100 µM
- TGI [12]: > 100 µM
- TGI [13]: > 100 µM
- TGI [15]: > 100 µM
- TGI [16]: > 100 µM
- TGI [17]: > 100 µM
- TGI [18]: > 100 µM
- TGI [19]: > 100 µM
- TGI [20]: > 100 µM
- TGI [21]: > 100 µM
- TGI [23]: > 100 µM
- TGI [24]: > 100 µM
- TGI [25]: > 100 µM
- TGI [26]: > 100 µM
- TGI [27]: > 100 µM
- TGI [28]: > 100 µM
- TGI [29]: > 100 µM
- TGI [30]: > 100 µM
- TGI [31]: > 100 µM
- TGI [32]: > 100 µM
- TGI [33]: > 100 µM
- TGI [34]: > 100 µM
- TGI [35]: > 100 µM
- TGI [37]: > 100 µM
- TGI [39]: > 100 µM
- TGI [40]: > 100 µM
- TGI [42]: > 100 µM
- TGI [43]: > 100 µM
- TGI [44]: > 100 µM
- TGI [45]: > 100 µM
- TGI [46]: > 100 µM
- TGI [47]: > 100 µM
- TGI [48]: > 100 µM
- TGI [58]: > 100 µM
- TGI [50]: > 100 µM
- TGI [51]: > 100 µM
- TGI [52]: > 100 µM
- TGI [59]: > 100 µM
- TGI [54]: > 100 µM
- TGI [55]: > 100 µM

SMILES: COc1ccc(/C=C2\N=C(SC)N(CN3CCOCC3)C2=O)cc1
- TGI [1]: > 100 µM
- TGI [2]: > 100 µM
- TGI [4]: > 100 µM
- TGI [5]: > 100 µM
- TGI [6]: > 100 µM
- TGI [7]: > 100 µM
- TGI [8]: > 100 µM
- TGI [9]: > 100 µM
- TGI [10]: > 100 µM
- TGI [57]: > 100 µM
- TGI [11]: > 100 µM
- TGI [12]: > 100 µM
- TGI [14]: > 100 µM
- TGI [15]: > 100 µM
- TGI [16]: > 100 µM
- TGI [17]: > 100 µM
- TGI [19]: > 100 µM
- TGI [20]: > 100 µM
- TGI [21]: > 100 µM
- TGI [23]: > 100 µM
- TGI [24]: > 100 µM
- TGI [26]: > 100 µM
- TGI [27]: > 100 µM
- TGI [28]: > 100 µM
- TGI [29]: > 100 µM
- TGI [30]: > 100 µM
- TGI [31]: > 100 µM
- TGI [32]: > 100 µM
- TGI [33]: > 100 µM
- TGI [34]: > 100 µM
- TGI [35]: 78.2 µM
- TGI [37]: > 100 µM
- TGI [38]: > 100 µM
- TGI [39]: > 100 µM
- TGI [40]: > 100 µM
- TGI [41]: > 100 µM
- TGI [42]: 67.4 µM
- TGI [43]: > 100 µM
- TGI [44]: > 100 µM
- TGI [45]: > 100 µM
- TGI [46]: > 100 µM
- TGI [47]: > 100 µM
- TGI [48]: > 100 µM
- TGI [58]: > 100 µM
- TGI [49]: > 100 µM
- TGI [50]: > 100 µM
- TGI [51]: > 100 µM
- TGI [52]: > 100 µM
- TGI [59]: > 100 µM
- TGI [53]: > 100 µM
- TGI [55]: > 100 µM
